Data reported in patent US10457710B2, “Antimicrobial peptides, their variants and uses” (priority 2015, dated 2019).
Where a SMILES comes first, the peptide text is derived from it. Where no end group is shown, it is not given here. [ ]: non-standard residue; d: D form.

Experiments:
[1] = +4, 25, 37 and 45° C., 14 days, PBS pH 7.4, activity by RDA
Method: FIG. 8a. […] Antibacterial activity was tested by aliquoting 20 μg of peptides incubated at different temperature and activity was measured by zone of inhibition. Peptides at −20° C. served as control.
(§1) Thermal stability was evaluated by diluting peptides to the concentration of 2 mg/ml in PBS buffer (pH 7.4) and incubating at different temperatures, such as +4° C., 25° C. (RT), 37° C. and 45° C., peptides stored at −20° C. were used as control. After each time interval, 100 μl (2 mg/ml) of peptides were taken and stored at −20° C. for radial diffusion assay to determine the antibacterial activity (FIG. 8). Peptides were also tested by diluting them at different pH values starting from pH 4 to 9. The effect of NaCl on the antimicrobial activity was tested by adding different concentrations (50, 100 and 200 mM) of NaCl to MH medium and the minimum inhibitory concentrations were tested against 4 ATCC bacterial strains.

human erythrocytes = type: cell-based
Method: In hemolysis assays, the ability of peptides at 128 μg/ml concentration to lyse human erythrocytes to release hemoglobin was measured. The peptides described here preferably have low hemolytic activity (0.2 to 3.8% hemolysis) in mammal body. […] These peptides are useful as antimicrobial drugs as they show little or no side effects at concentrations needed to kill bacteria.
Minimum inhibition concentrations (MICs) were tested by microbroth dilution method and Chain 104, 105 and 109 inhibited the growth of Escherichia coli (ATCC 25922), Staphylococcus aureus (ATCC 25923), Klebsiella pneumoniae (ATCC 10031) and Pseudomonas aeruginosa (ATCC 27853) between 1-8 μg/ml respectively (Tables 3a, 3b and 3c). The membranolytic activities of the peptides were tested by measuring the release of hemoglobin from erythrocytes of fresh blood donated by voluntiers. Hemoglobin levels were determined spectrometrically by taking OD at 540 nm by following the protocol of Schmidtchen et al., 2011.

[2] = pH 4 to 9, activity by RDA
Method: FIG. 9a. pH stability of chain peptides 104 and 105 was determined by radial diffusion assay (RDA). Different pH ranging from 4-9 was used to check the zone of inhibition.
as §1

MRSA strains = assay: MIC, synergistic activity with Ertapenem (4 μg/ml); type: cell-based, S. aureus; conditions: S. aureus COL with 4 μg/ml Ertapenem (synergistic activity)
Method: (§2) Peptides Chain 104, Chain 105, Chain 201, Chain 308, Chain 310 were tested against antibiotic-sensitive strains of S. aureus RN4220 and methicillin resistant strains of S. aureus COL (MRSA). Chain peptides comprising of either L- or D-form amino acids were tested against these bacteria, and the D-form peptides were found have better activity compared to L-form (Table 6). Synergistic activity of chain peptides along with Ertapenem (4 μg/ml) was tested to know whether it will influence the activity against MRSA strains. […] Chain 310 has the best antibacterial activity against the MRSA strains with a MIC of 0.06 & 0.03 μg/ml along with Ertapenem (4 μg/ml) for both forms of L and D-peptides (Table 6).

S. aureus RN4220 = type: cell-based; conditions: antibiotic sensitive strain S. aureus RN4220
Method: Minimum inhibition concetrations (MICs) were determined against Escherichia coli (ATCC 25922), Staphylococcus aureus (ATCC 25923), Klebsiella pneumoniae (ATCC 10031) and Pseudomonas aeruginosa (ATCC 27853). Also clinical strains of E. coli, K. pneumoniae, E. cloacae, P. aeruginosa, Serratia marcescens, Proteus mirabilis, S. pneumoniae, Acinetobacter baumannii, A. johnsonii and S. aureus were used for MICs assays. Additionally, clinical strains of yeast including Candida albicans, C. glabrata, C. parapsilosis and C. quillermondiae were used. The susceptibility of these microorganisms to Chain peptides were determined using micro broth dilution assay. Colonies of the respective microorganism from Muller Hinton (MH) agar plates incubated overnight were suspended in MH broth media and final concentration of microorganism was adjusted to 5.0×10^5 cfu/ml. An aliquot of 10 μl of each Chain peptide, or gentamicin, tetracycline as reference antibiotics were added in differing concentrations along with 90 μl of bacterial suspension to 96 well polypropylene plates and incubated at 37° C. for 20 to 24 hours. Concentrations of Chain peptides and reference antibiotics ranged from 0.125 to 128 μg/ml and the MICs were recorded as the lowest concentration with no visual growth of bacteria. Similarly, antifungal MICs were tested in Potato dextrose broth.
as §2

S. aureus = assay: Antibacterial activity analysis of protein on LB plate; type: cell-based
Method: Both folded and unfolded proteins were tested for antibacterial activity against S. aureus by pipetting 10 μg of protein on the S. aureus culture on an LB plate. The activity was also tested in folded and unfolded protein digested with trypsin in 0.01% acetic acid at concentrations of 30 and 60 μg/ml.

## KWIVWRWRFKR [Chain201]
[1]
  thermostability: not hindered by pH or temperature even upto 45 °C for over 14 days
Human erythrocytes
  side effects to humans as tested by hemolysis assay: little side effects to humans
[2]
  pH stability: not hindered by pH

## KRKWRWLFKKL [Chain310]
Human erythrocytes
  side effects to humans as tested by hemolysis assay: little side effects to humans

## RLKRWRLFRKR [Chain306]
[1]
  thermostability: not hindered by pH or temperature even upto 45 °C for over 14 days
[2]
  pH stability: not hindered by pH

## CC[C@@H](C)[C@@H](NC(=O)[C@@H](CCSC)NC(=O)[C@@H](C)NC(=O)[C@@H](CCCNC(=N)N)NC(=O)[C@@H](Cc1c[nH]c2ccccc12)NC(=O)[C@@H](CCCCN)NC(=O)[C@H](N)CCCNC(=N)N)C(=O)N[C@H](CCCNC(=N)N)C(=O)N[C@H](CC(C)C)C(=O)N[C@H](Cc1c[nH]cn1)C(=O)N[C@H](C)C(=O)N[C@H](CCCCN)C(=O)N[C@H](Cc1c[nH]c2ccccc12)C(=O)N[C@H](CC(C)C)C(=O)N[C@H](CCCNC(=N)N)C(=O)N[C@H](CCCCN)C(=O)O [105 D] (H-[dR][dK][dW][dR][dA][dM][dI][dR][dL][dH][dA][dK][dW][dL][dR][dK]-OH)
MRSA strains
  Minimum inhibitory concentration (MICs), S. aureus COL + 4 μg/ml Ertapenem: 2 µg/mL
S. aureus RN4220
  Minimum inhibitory concentration (MICs), S. aureus RN4220: 16 µg/mL

## CC[C@@H](C)[C@@H](NC(=O)[C@@H](Cc1c[nH]c2ccccc12)NC(=O)[C@H](N)CCCCN)C(=O)N[C@@H](C(=O)N[C@H](Cc1c[nH]c2ccccc12)C(=O)N[C@H](CCCNC(=N)N)C(=O)N[C@H](Cc1c[nH]c2ccccc12)C(=O)N[C@H](CCCNC(=N)N)C(=O)N[C@H](Cc1ccccc1)C(=O)N[C@H](CCCCN)C(=O)N[C@H](CCCNC(=N)N)C(=O)O)C(C)C [201 D] (H-[dK][dW][dI][dV][dW][dR][dW][dR][dF][dK][dR]-OH)
MRSA strains
  Minimum inhibitory concentration (MICs), S. aureus COL + 4 μg/ml Ertapenem: 1 µg/mL
S. aureus RN4220
  Minimum inhibitory concentration (MICs), S. aureus RN4220: 2 µg/mL

## RKWRAMIRLHAKWLRK [Compound 105]
MRSA strains
  Minimum inhibitory concentration (MICs), S. aureus COL + 4 μg/ml Ertapenem: 0.5 µg/mL
S. aureus RN4220
  Minimum inhibitory concentration (MICs), S. aureus RN4220: >64 µg/mL

## RLKWFWLFRKR [Chain307]
Human erythrocytes
  side effects to humans as tested by hemolysis assay: little side effects to humans

## RLKWFLLFRKR [Chain308]
[1]
  thermostability: not hindered by pH or temperature even upto 45 °C for over 14 days
Human erythrocytes
  side effects to humans as tested by hemolysis assay: little side effects to humans
[2]
  pH stability: not hindered by pH

## RKWRAMIRLHAKRLRK [Compound 104]
MRSA strains
  Minimum inhibitory concentration (MICs), S. aureus COL + 4 μg/ml Ertapenem: 0.25 µg/mL
S. aureus RN4220
  Minimum inhibitory concentration (MICs), S. aureus RN4220: >64 µg/mL

## CC(C)C[C@@H](NC(=O)[C@@H](CCCCN)NC(=O)[C@@H](CCCCN)NC(=O)[C@@H](Cc1ccccc1)NC(=O)[C@@H](CC(C)C)NC(=O)[C@@H](Cc1c[nH]c2ccccc12)NC(=O)[C@@H](CCCNC(=N)N)NC(=O)[C@@H](Cc1c[nH]c2ccccc12)NC(=O)[C@@H](CCCCN)NC(=O)[C@@H](CCCNC(=N)N)NC(=O)[C@H](N)CCCCN)C(=O)O [310 D] (H-[dK][dR][dK][dW][dR][dW][dL][dF][dK][dK][dL]-OH)
MRSA strains
  Minimum inhibitory concentration (MICs), S. aureus COL + 4 μg/ml Ertapenem: <0.03 µg/mL
S. aureus RN4220
  Minimum inhibitory concentration (MICs), S. aureus RN4220: >64 µg/mL

## RKWRAMIRLHAKRLRK [Chain104]
[1]
  thermostability: not hindered by pH or temperature even upto 45 °C for over 14 days
Human erythrocytes
  side effects to humans as tested by hemolysis assay: little side effects to humans
[2]
  pH stability: not hindered by pH

## KRKWRWLFKKL [Compound 310]
MRSA strains
  Minimum inhibitory concentration (MICs), S. aureus COL + 4 μg/ml Ertapenem: 0.06 µg/mL
S. aureus RN4220
  Minimum inhibitory concentration (MICs), S. aureus RN4220: >64 µg/mL

## WWRLHAKWKLW [Chain109]
Human erythrocytes
  side effects to humans as tested by hemolysis assay: little side effects to humans

## RKWRAMIRLHAKWLRK [Chain105]
[1]
  thermostability: not hindered by pH or temperature even upto 45 °C for over 14 days
Human erythrocytes
  side effects to humans as tested by hemolysis assay: little side effects to humans
[2]
  pH stability: not hindered by pH

## RRLIWRRFKWLR [Chain204]
[1]
  thermostability: not hindered by pH or temperature even upto 45 °C for over 14 days
Human erythrocytes
  side effects to humans as tested by hemolysis assay: little side effects to humans
[2]
  pH stability: not hindered by pH

B1: En-MAP1: protein of 549 amino acids from an endophyte of Empetrum nigrum, GenBank accession number KC466596 (protein, listed as Empetrum nigrum)
chain: MRLVAHPVPDAPLYALMIKACSMGIPQPNDNLWKPRNPLLAKEEKTSKRGRTAPDTERALDLFREMTLRYNIRPTAEVYTAIIAACVKRDDMYDKGFGLFKKMVELERNRMSSEGHDSTSFAPTRATYNALLRGCARNKDLLRARWILAEMLRTAQAKWQEFMEKSKKGEEGVQEWELLEVEEMRPDTNTMAFLFYTYASHTTSSKAVPETEGKKELEGKAEERASEVTSVSPVSEPPEPMDESKLVYSLPTSSQAILREVTSLLDRIKSDQGQQSNLLSSVQINSKLLNSYIAVLSAHCRSSQVVERISEVVVGTKENPKSLFEETGTSVNGYTCFTVIDACGMMEHSPDTYHLACEMWQRWLSLVENATFHRENPLKAKEIGLDSRTISDCWSAMIRLHAKYNQVDEAMKLVHEFARLYPPASLFNSLTFEPSSTSSSSLSPRKGVQEISPLFSSTSLTHSIRGRDISRIQNTMSQDPTLQFRAVQILHLRLVELETRPKDLAYLSWLLKSYEHQLQPKRPKSLQGDLFTSRQAAYNRIVQQRTSSR
S. aureus; expressed, folded protein
  antibacterial activity against S. aureus: no activity was observed
S. aureus; folded full protein digested with trypsin, data not shown
  antibacterial activity against S. aureus: antibacterial activity was observed for up to two hours after digestion
S. aureus; trypsin digest of the unfolded protein
  antibacterial activity against S. aureus: No activity was detected
